# Experimental data from PubChem BioAssay (NCI).
#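 48-hour exposure; five concentrations; linearly interpolated endpoints. Here, GI50 denotes the concentration required for 50% inhibition of growth. The concentration for full growth arrest is given as TGI.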
# Columns and labels:
# Test in all cases: NCI anticancer screen, dose series, 48 h
# [1] = test system: 786-0 renal
# [2] = test system: A498 renal
# [3] = test system: A549 NSCLC
# [4] = test system: ACHN renal
# [5] = test system: BT-549 breast
# [6] = test system: CCRF-CEM leukemia
# [7] = test system: COLO 205 colon
# [8] = test system: DU-145 prostate
# [9] = test system: EKVX NSCLC
# [10] = test system: HCC-2998 colon
# [11] = test system: HCT-116 colon
# [12] = test system: HCT-15 colon
# [13] = test system: HL-60(TB) leukemia
# [14] = test system: HOP-62 NSCLC
# [15] = test system: HOP-92 NSCLC
# [16] = test system: HS 578T breast
# [17] = test system: HT29 colon
# [18] = test system: IGROV1 ovarian
# [19] = test system: K-562 leukemia
# [20] = test system: KM12 colon
# [21] = test system: M14 melanoma
# [22] = test system: MALME-3M melanoma
# [23] = test system: MDA-MB-231 breast
# [24] = test system: MDA-MB-435
# [25] = test system: MOLT-4 leukemia
# [26] = test system: NCI-H226 lung
# [27] = test system: NCI-H23 lung
# [28] = test system: NCI-H460 lung
# [29] = test system: NCI-H522 lung
# [30] = test system: NCI/ADR-RES ovarian
# [31] = test system: OVCAR-3 ovarian
# [32] = test system: OVCAR-4 ovarian
# [33] = test system: OVCAR-5 ovarian
# [34] = test system: OVCAR-8 ovarian
# [35] = test system: PC-3 prostate
# [36] = test system: RPMI-8226 leukemia
# [37] = test system: RXF 393 renal
# [38] = test system: SF-268 CNS
# [39] = test system: SF-295 CNS
# [40] = test system: SF-539 CNS
# [41] = test system: SK-MEL-2 melanoma
# [42] = test system: SK-MEL-28 melanoma
# [43] = test system: SK-MEL-5 melanoma
# [44] = test system: SK-OV-3 ovarian
# [45] = test system: SN12C renal
# [46] = test system: SNB-19 CNS
# [47] = test system: SNB-75 CNS
# [48] = test system: SR leukemia
# [49] = test system: SW-620 colon
# [50] = test system: T-47D breast
# [51] = test system: TK-10 renal
# [52] = test system: U251 CNS
# [53] = test system: UACC-257 melanoma
# [54] = test system: UACC-62 melanoma
# [55] = test system: UO-31 renal
# [56] = test system: CAKI-1 renal
# [57] = test system: LOX IMVI melanoma
# [58] = test system: MCF7 breast
compound,measurement,setting,value
Nc1c2c(c(O)c3c1=C(CO)C=N3)=NCCS2,GI50,[1],317 nM
same,TGI,[1],1230 nM
same,GI50,[2],148 nM
same,TGI,[2],285 nM
same,GI50,[3],56.1 nM
same,TGI,[3],219 nM
same,GI50,[4],269 nM
same,TGI,[4],844 nM
same,GI50,[5],175 nM
same,TGI,[5],317 nM
same,GI50,[6],329 nM
same,TGI,[6],1900 nM
same,GI50,[7],39.7 nM
same,TGI,[7],146 nM
same,GI50,[8],127 nM
same,TGI,[8],253 nM
same,GI50,[9],311 nM
same,TGI,[9],1200 nM
same,GI50,[10],169 nM
same,TGI,[10],329 nM
same,GI50,[11],223 nM
same,TGI,[11],524 nM
same,GI50,[12],166 nM
same,TGI,[12],381 nM
same,GI50,[13],222 nM
same,TGI,[13],512 nM
same,GI50,[14],175 nM
same,TGI,[14],317 nM
same,GI50,[15],761 nM
same,TGI,[15],2500 nM
same,GI50,[16],318 nM
same,TGI,[16],812 nM
same,GI50,[17],79.4 nM
same,TGI,[17],370 nM
same,GI50,[18],209 nM
same,TGI,[18],535 nM
same,GI50,[19],243 nM
same,TGI,[19],682 nM
same,GI50,[20],325 nM
same,TGI,[20],1740 nM
same,GI50,[21],83.9 nM
same,TGI,[21],215 nM
same,GI50,[22],34.7 nM
same,TGI,[22],108 nM
same,GI50,[23],296 nM
same,TGI,[23],834 nM
same,GI50,[24],52.1 nM
same,TGI,[24],169 nM
same,GI50,[25],223 nM
same,TGI,[25],541 nM
same,GI50,[26],199 nM
same,TGI,[26],471 nM
same,GI50,[27],97.1 nM
same,TGI,[27],352 nM
same,GI50,[28],38.9 nM
same,TGI,[28],154 nM
same,GI50,[29],191 nM
same,TGI,[29],430 nM
same,GI50,[30],256 nM
same,TGI,[30],824 nM
same,GI50,[31],164 nM
same,TGI,[31],350 nM
same,GI50,[32],136 nM
same,TGI,[32],264 nM
same,GI50,[33],184 nM
same,TGI,[33],346 nM
same,GI50,[34],307 nM
same,TGI,[34],880 nM
same,GI50,[35],287 nM
same,TGI,[35],1050 nM
same,GI50,[36],583 nM
same,TGI,[36],3120 nM
same,GI50,[37],289 nM
same,TGI,[37],1240 nM
same,GI50,[38],291 nM
same,TGI,[38],1050 nM
same,GI50,[39],177 nM
same,TGI,[39],330 nM
same,GI50,[40],165 nM
same,TGI,[40],301 nM
same,GI50,[41],250 nM
same,TGI,[41],658 nM
same,GI50,[42],283 nM
same,TGI,[42],804 nM
same,GI50,[43],21.5 nM
same,TGI,[43],54.3 nM
same,GI50,[44],346 nM
same,TGI,[44],1200 nM
same,GI50,[45],167 nM
same,TGI,[45],332 nM
same,GI50,[46],147 nM
same,TGI,[46],284 nM
same,GI50,[47],168 nM
same,TGI,[47],306 nM
same,GI50,[48],235 nM
same,TGI,[48],774 nM
same,GI50,[49],202 nM
same,TGI,[49],391 nM
same,GI50,[50],224 nM
same,TGI,[50],484 nM
same,GI50,[51],420 nM
same,TGI,[51],1460 nM
same,GI50,[52],180 nM
same,TGI,[52],329 nM
same,GI50,[53],142 nM
same,TGI,[53],288 nM
same,GI50,[54],156 nM
same,TGI,[54],330 nM
same,GI50,[55],161 nM
same,TGI,[55],345 nM
COc1cc2nc(-c3cccs3)nc(N3CCN(c4ccccc4C(F)(F)F)CC3)c2cc1OC,TGI,[1],> 100000 nM
same,TGI,[2],> 100000 nM
same,TGI,[3],> 100000 nM
same,TGI,[4],> 100000 nM
same,TGI,[5],> 100000 nM
same,TGI,[56],> 100000 nM
same,TGI,[6],> 100000 nM
same,TGI,[7],> 100000 nM
same,TGI,[8],> 100000 nM
same,TGI,[9],> 100000 nM
same,TGI,[10],> 100000 nM
same,TGI,[11],> 100000 nM
same,TGI,[12],> 100000 nM
same,TGI,[13],> 100000 nM
same,TGI,[14],> 100000 nM
same,TGI,[15],> 100000 nM
same,TGI,[16],> 100000 nM
same,TGI,[17],> 100000 nM
same,TGI,[18],> 100000 nM
same,TGI,[19],> 100000 nM
same,TGI,[20],> 100000 nM
same,TGI,[57],> 100000 nM
same,TGI,[21],> 100000 nM
same,TGI,[22],> 100000 nM
same,TGI,[58],> 100000 nM
same,TGI,[23],> 100000 nM
same,TGI,[24],> 100000 nM
same,TGI,[25],> 100000 nM
same,TGI,[26],> 100000 nM
same,TGI,[27],> 100000 nM
same,TGI,[28],> 100000 nM
same,TGI,[29],> 100000 nM
same,TGI,[30],> 100000 nM
same,TGI,[31],> 100000 nM
same,TGI,[32],> 100000 nM
same,TGI,[33],> 100000 nM
same,TGI,[34],> 100000 nM
same,TGI,[35],> 100000 nM
same,TGI,[36],> 100000 nM
same,TGI,[38],> 100000 nM
same,TGI,[39],> 100000 nM
same,TGI,[40],> 100000 nM
same,TGI,[41],> 100000 nM
same,TGI,[42],> 100000 nM
same,TGI,[43],> 100000 nM
same,TGI,[44],> 100000 nM
same,TGI,[45],> 100000 nM
same,TGI,[46],> 100000 nM
same,TGI,[47],> 100000 nM
same,TGI,[49],> 100000 nM
same,TGI,[50],> 100000 nM
same,TGI,[51],> 100000 nM
same,TGI,[52],> 100000 nM
same,TGI,[53],> 100000 nM
same,TGI,[54],> 100000 nM
same,TGI,[55],> 100000 nM
Cc1c2c(cc[n+]1Cc1ccccc1)c1ccc(OCc3ccccc3)cc1n2Cc1ccccc1,GI50,[4],1510 nM
same,TGI,[4],2840 nM
same,GI50,[56],1670 nM
same,TGI,[56],3670 nM
same,GI50,[6],336 nM
same,TGI,[6],2090 nM
same,GI50,[8],499 nM
same,TGI,[8],1740 nM
same,GI50,[12],2010 nM
same,TGI,[12],4640 nM
same,GI50,[13],202 nM
same,TGI,[13],470 nM
same,GI50,[30],5780 nM
same,TGI,[30],> 69300 nM
same,GI50,[33],984 nM
same,TGI,[33],2210 nM
same,GI50,[36],231 nM
same,TGI,[36],1950 nM
same,GI50,[42],515 nM
same,TGI,[42],1860 nM
same,GI50,[43],182 nM
same,TGI,[43],366 nM
same,GI50,[44],1110 nM
same,TGI,[44],2360 nM
same,GI50,[53],245 nM
same,TGI,[53],789 nM
same,GI50,[54],286 nM
same,TGI,[54],1210 nM
